Data taken from US5221667A, “Renin inhibiting peptides having an α-heteroatom amino acid at the P3 position” (Warner-Lambert Company, priority 1990, dated 1993).

Molecular target: T1, renin (Homo sapiens, UniProt P00797)
T1 sequence (P00797 67-406): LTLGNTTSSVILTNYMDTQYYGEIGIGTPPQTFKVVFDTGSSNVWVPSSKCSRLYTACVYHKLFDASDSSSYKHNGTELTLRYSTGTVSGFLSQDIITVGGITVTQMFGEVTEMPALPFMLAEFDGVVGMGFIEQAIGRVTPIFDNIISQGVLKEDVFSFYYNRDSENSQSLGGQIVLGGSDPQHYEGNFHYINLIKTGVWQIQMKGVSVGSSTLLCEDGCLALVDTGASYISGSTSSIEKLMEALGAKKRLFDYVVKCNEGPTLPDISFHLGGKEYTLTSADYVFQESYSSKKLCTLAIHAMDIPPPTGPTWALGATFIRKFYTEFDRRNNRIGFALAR
Test: in vitro renin inhibitory activity, radioimmunoassay for angiotensin I
Format: biochemical
Conditions: for inhibition at 0.01 µM: at 10^-8 molar concentration of test compound, read-out: In Vitro Activity, percent inhibition at 10^-8; for IC50: renin incubated two hours at 37° with angiotensinogen, values marked * are IC50, read-out: In Vitro Activity, IC50 (molar concentration causing 50% inhibition of renin activity)
Method: The effectiveness of the aforementioned compounds is determined by a test for in vitro renin inhibitory activity. This activity is determined by a standard radioimmunoassay for angiotensin I. In this assay the enzyme, renin, incubated for two hours at 37° in the presence of a substrate, angiotensinogen, generates the product, angiotensin I. Test compounds are added to the incubation mixture. Relative activity is reported as the percent inhibition at the specified molar concentration or as the IC50, which is the molar concentration of test compound causing a 50% inhibition of the renin activity.

| IC50 | Compound | other results |
| --- | --- | --- |
| 0.14 µM | CC[C@H](C)CNC(=O)C[C@H](O)[C@H](CC(C)C)NC(=O)[C@H](CC(C)C)NC(=O)C(NC(=O)CC(C)C)Sc1ccccc1 (single isomer, unassigned) [IVA-NHCH(SPh)CO--LEU--STA--MBA (Isomer A), IVA-NHCH(SPh)-CO-LEU-STA-MBA] | – |
| 0.0015 µM | CC(C)CC(=O)NC(Sc1ccccc1)C(=O)N[C@@H](Cc1c[nH]cn1)C(=O)N[C@@H](CC1CCCCC1)[C@@H](O)[C@@H](O)CC(C)C (some centres unmarked) [IVA-NHCH(SPh)CO--HIS--CAD, IVA-NHCH(SPh)CO-HIS-CAD] | – |
| 0.013 µM | IVA-NHCH(NHPh)CO-HIS-CAD [IVA-NHCH(NHPh)CO--HIS--CAD] | – |
| 3 µM | IVA-NHCH-(OPh)CO-HIS-CAD [IVA-NHCH(OPh)CO--HIS--CAD] | – |
| 0.0057 µM | IVA-NHCH-(SCH(CH3)2)CO-HIS-CAD (Isomer B) [IVA-NHCH(SCH(CH3)2)CO--HIS--CAD (Isomer B)] | – |

More lines, now with the values behind:

| Compound | IC50 | other results |
| --- | --- | --- |
| CC(C)CC(=O)NC(SC(C)C)C(=O)N[C@@H](Cc1c[nH]cn1)C(=O)N[C@@H](CC1CCCCC1)[C@@H](O)[C@@H](O)CC(C)C (single isomer, unassigned) [IVA-NHCH(SCH(CH3)2)CO--HIS--CAD (Isomer A), IVA-NHCH(SCH(CH3)2)CO-HIS-CAD (Isomer A)] | – | inhibition at 0.01 µM: 10.5% |
| CC[C@H](C)CNC(=O)C[C@H](O)[C@H](CC(C)C)NC(=O)[C@H](CC(C)C)NC(=O)C(NC(=O)CC(C)C)Sc1ccccc1 (single isomer, unassigned) [IVA-NHCH(SPh)CO--LEU--STA--MBA (Mixture of diastereomers), IVA-NHCH(SPh)-CO-LEU-STA-MBA] | 0.19 µM | – |
| CC[C@H](C)CNC(=O)C[C@H](O)[C@H](CC(C)C)NC(=O)[C@H](CC(C)C)NC(=O)C(NC(=O)OC(C)(C)C)SC(C)C (some centres unmarked) [BOC--NHCH(SCH(CH3)2)CO--LEU--STA--MBA, BOC-NHCH(SCH-(CH3)2)CO-LEU-STA-MBA] | – | inhibition at 1 µM (at 10^-6 molar concentration of test compound, read-out: In Vitro Activity, percent inhibition at 10^-6): 23% |
| CC(C)CC(=O)NC(C(=O)N[C@@H](Cc1c[nH]cn1)C(=O)N[C@@H](CC1CCCCC1)[C@@H](O)[C@@H](O)CC(C)C)S(=O)(=O)C(C)C (some centres unmarked) [IVA-NHCH(SO2 CH(CH3)2)CO--HIS--CAD, IVA-NHCH(SO2 CH(CH3)2)CO-HIS-CAD] | – | inhibition at 0.01 µM: 8.2% |
| IVA-NHCH(N(CH3)Ph)CO-HIS-CAD [IVA-NHCH(N(CH3)Ph)CO--HIS--CAD] | 0.0035 µM | – |
| IVA-NHCH(NHPh)CO-LEU-STA-MBA [IVA-NHCH(NHPh)CO--LEU--STA--MBA] | – | In Vitro Activity, percent inhibition at 10^-6 (at 10^-6 molar concentration of test compound): 24% |
